Patent publication US20150166505A1, “PYRIDINYL-SUBSTITUTED PYRAZOLYL CARBOXAMIDES” (GRÜNENTHAL GMBH, priority 2013, published 2015)
Read-outs that look alike come from different tables or passages of the source.

Key:
[1] = target: T1, CRAC channel (endogenous SOC in HEK293 cells) (Homo sapiens, UniProt Q96D31); experiment: HEK Calcium Influx Assay (FLIPR); format: cell-based
T1 construct: endogenous in cells; host or cells: HEK293 (ECACC)
Description: The effect of compounds of the invention on intracellular [Ca^2+] was tested in the HEK293 cell line (ECACC). HEK293 cells were cultured in DMEM/F12/Glutamax (Gibco) containing 10% FCS (Gibco), and maintained at 37° C., 5% CO2. Cell were split twice a week [3*10^6 (Mon-Thu) and 1*10^6 (Thu-Mon) cells/50 ml medium in T-175 ZK culture flasks, respectively]. Twenty four hours pre-experiment, cells were seeded on 96 well plates (Poly-D-Lysine 96well Black/Clear Plate, BD Biocoat REF 356640) at a density of 40,000 cells/well in DMEM/F12 (Gibco) containing 10% FCS (Gibco), and maintained at 37° C., 5% CO2. Prior to store-depletion, cell culture medium was removed and cells were loaded with the a Calcium-sensitive fluorescent dye comprised within the Calcium-4-assay kit (Molecular Devices) in nominally Ca^2+-free HBS buffer (140 mM NaCl, 4 mM KCl, 0.2 mM MgCl2, 11 mM D-glucose, and 10 mM HEPES, pH 7.4) according to manufacturer's instruction for 60 min at 37° C., 5% CO2. Passive depletion of intracellular Ca^2+-stores was then triggered by employing the SERCA inhibitor thapsigargin (2 μM final) for 10 min in the dark (RT). To prevent immediate Ca^2+-entry via the activated Store-operated channels (SOCs), cells were maintained in Ca^2+-free HBS buffer comprising 100 μM EGTA during store-depletion. Intracellular changes in [Ca^2+] were subsequently monitored with the FLIPR device (Molecular Devices). In brief, baseline imaging post-store depletion was allowed for 1 min before adjusting the extracellular buffer to 3 mM CaCl2. Increases in intracellular [Ca^2+] due to pre-activated SOC channels were monitored for 15 min until intracellular Ca^2+ levels had declined into a steady-state. Finally, compounds were administered and Ca^2+ signals were recorded for additional 10 min. Inhibition of endogenous SOC in HEK293 cells was quantified employing the average Ca^2+ signal measured from 9.5-10 min post-administration. Zero percent inhibition (MAX) was defined as the Ca^2+ signal recorded from wells to which DMSO-only had been added instead of compound. Hundred percent inhibition (MIN) was defined as the signal obtained from wells in which cells haven't been treated with TG prior to Ca^2+ addition and to which DMSO-only had been added instead of compound. For routine IC50 determinations of compounds, 8 concentrations of a serial dilution (1:3.16) were tested, starting off from 10 μM. Reliable IC50's could consequently be determined only, if they were at least sub 2.5-3 μM.

[2] = system: Interleukin-2 (IL-2) production/release in Jurkat T cell line; experiment: Jurkat IL-2 Production Assay; format: cell-based; conditions: Homo sapiens; Jurkat T cells, PHA stimulation 22 hours
Description: Jurkat IL-2 Production Assay
The effect of compounds of the invention on Interleukin-2 (IL-2) production/release was tested in the Jurkat T cell line (ECACC) clone E6-1. Jurkat T cells were cultured in DMEM/F12/Glutamax (Gibco) containing 10% FCS (Gibco), and maintained at 37° C., 5% CO2. Cell were split twice a week [5*10^6 (Mon-Thu) and 1*10^7 (Thu-Mon) cells/50 ml medium in T-175 ZK culture flasks, respectively]. Prior to experiment, cells were seeded on 96 well plates (Cellstar 96 Well; Cat No. 655180, Greiner bio-one) at a density of 5*10^5 cells/well in DMEM/F12/Glutamax (Gibco) containing 10% FCS (Gibco), and incubated for 60 min at 37° C., 5% CO2. Subsequently, compounds were added and cells were allowed to incubate for 30 min at 37° C., 5% CO2. Cells were then stimulated with 15 μg/ml Phytohemagglutinin (PHA; Sigma) for 22 hours at 37° C., 5% CO2. Before sampling of the supernatants, cells were spun down (200*g/5 min/RT). The amount of IL-2 released into the supernatant was quantified with the human IL-2 AlphaLisa kit (Perkin Elmer) according to manufacturer's instructions. Luminescence proximity measurements were carried out in the Synergy H4 reader (BioTek) employing the fluorescence setting of the reader (ex: 680/30 nm; em: 620/40 nm). Inhibition of IL-production/release in/from Jurkat T cells was quantified as follows: Zero percent inhibition (MAX) was defined as the [IL-2] determined in supernatants derived from cells to which PHA & DMSO-only had been added instead of compound. Hundred percent inhibition (MIN) was defined as the [IL-2] determined in supernatants derived from cells that had been pre-treated with 1 μM CyclosporineA (Sigma) before the addition of 15 μg/ml PHA. For routine IC50 determinations of compounds, 8 concentrations of a serial dilution (1:3.16) were tested, starting off from 10 μM.

[3] = numeric values of Table 2, read-out: inhib. [@ 10 μM] FLIPR
[4] = thapsigargin store depletion, read-out: % inhib. [@ 10 μM] FLIPR

T1 sequence (Q96D31 whole entry): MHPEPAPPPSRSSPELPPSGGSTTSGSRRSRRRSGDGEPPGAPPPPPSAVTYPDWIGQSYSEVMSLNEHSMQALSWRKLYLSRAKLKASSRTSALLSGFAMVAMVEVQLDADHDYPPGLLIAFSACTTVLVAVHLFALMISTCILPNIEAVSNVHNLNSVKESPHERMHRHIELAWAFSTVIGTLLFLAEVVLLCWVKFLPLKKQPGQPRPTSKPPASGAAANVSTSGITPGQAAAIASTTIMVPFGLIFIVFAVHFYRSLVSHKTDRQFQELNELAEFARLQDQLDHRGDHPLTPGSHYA

Compound | inhibition at 10 µM [1, 3] [%] | inhibition at 10 µM [1, 4] [%] | IC50 [2] [µM]
Cc1cc(OC(C)C)ncc1-c1cc(C(=O)Nc2c(F)cccc2F)nn1C [Example 13, N-(2,6-Difluoro-phenyl)-5-(6-isopropoxy-4-methyl-pyridin-3-yl)-1-methyl-1H-pyrazole-3-carboxylic acid amide] | 100 | > 70 | 0.5 to 1
CCOc1cc(OC)c(-c2cc(C(=O)Nc3c(F)cncc3F)nn2C)cn1 [Example 14, N-(3,5-Difluoro-pyridin-4-yl)-5-(6-ethoxy-4-methoxy-pyridin-3-yl)-1-methyl-1H-pyrazole-3-carboxylic acid amide] |  | > 70 | < 0.5
CCOc1cc(OCC)c(-c2cc(C(=O)Nc3c(F)cncc3F)nn2C)cn1 [Example 15, 5-(4,6-Diethoxy-pyridin-3-yl)-N-(3,5-difluoro-pyridin-4-yl)-1-methyl-1H-pyrazole-3-carboxylic acid amide] |  | > 70 | < 0.5
CCOc1cc(OC)c(-c2cc(C(=O)Nc3c(F)cccc3F)nn2C)cn1 [Example 16, N-(2,6-Difluoro-phenyl)-5-(6-ethoxy-4-methoxy-pyridin-3-yl)-1-methyl-1H-pyrazole-3-carboxylic acid amide] |  | > 70 | < 0.5
CCOc1cc(OCC)c(-c2cc(C(=O)Nc3c(F)cccc3F)nn2C)cn1 [Example 17, 5-(4,6-Diethoxy-pyridin-3-yl)-N-(2,6-difluoro-phenyl)-1-methyl-1H-pyrazole-3-carboxylic acid amide] |  | > 70 | < 0.5
Cc1cc(OCC2CCC2)ncc1-c1cc(C(=O)Nc2c(F)cncc2F)nn1C [Example 20, 5-[6-(Cyclobutyl-methoxy)-4-methyl-pyridin-3-yl]-N-(3,5-difluoro-pyridin-4-yl)-1-methyl-1H-pyrazole-3-carboxylic acid amide] | 121 | > 70 | < 0.5
Cc1cc(OC2COC2)ncc1-c1cc(C(=O)Nc2c(F)cccc2F)nn1C [Example 23, N-(2,6-Difluoro-phenyl)-1-methyl-5-[4-methyl-6-(oxetan-3-yloxy)-pyridin-3-yl]-1H-pyrazole-3-carboxylic acid amide] | 94 | > 70 | 1 to 5
COCCOc1cc(C)c(-c2cc(C(=O)Nc3c(F)cccc3F)nn2C)cn1 [Example 28, N-(2,6-Difluoro-phenyl)-5-[6-(2-methoxy-ethoxy)-4-methyl-pyridin-3-yl]-1-methyl-1H-pyrazole-3-carboxylic acid amide] | 87 | > 70 | 1 to 5
CCOc1cc(C(F)(F)F)c(-c2cc(C(=O)Nc3c(F)cncc3F)nn2C)cn1 [Example 31, N-(3,5-Difluoro-pyridin-4-yl)-5-[6-ethoxy-4-(trifluoromethyl)-pyridin-3-yl]-1-methyl-1H-pyrazole-3-carboxylic acid amide] |  | > 70 | 1 to 5
CCOc1cc(C(F)(F)F)c(-c2cc(C(=O)Nc3c(F)cccc3F)nn2C)cn1 [Example 32, N-(2,6-Difluoro-phenyl)-5-[6-ethoxy-4-(trifluoromethyl)-pyridin-3-yl]-1-methyl-1H-pyrazole-3-carboxylic acid amide] |  | > 70 | 0.5 to 1
Cc1c(-c2cc(C(=O)Nc3c(F)cccc3F)nn2C)cnc(C2CC2)c1F [Example 33, 5-(6-Cyclopropyl-5-fluoro-4-methyl-pyridin-3-yl)-N-(2,6-difluoro-phenyl)-1-methyl-1H-pyrazole-3-carboxylic acid amide] |  | > 70 | 1 to 5
Cc1c(-c2cc(C(=O)Nc3c(F)cncc3F)nn2C)cnc(C2CC2)c1F [Example 34, 5-(6-Cyclopropyl-5-fluoro-4-methyl-pyridin-3-yl)-N-(3,5-difluoro-pyridin-4-yl)-1-methyl-1H-pyrazole-3-carboxylic acid amide] |  | > 70 | 1 to 5
